Assay results as given in patent US20070292440A1, “CD154 blockade therapy for pancreatic islet tissue transplantation” (priority 1997, published 2007).
“And” between values parts separate entries of the source, which are not always exact repeats. Identical values can stand only once.

Experiments:
[1] = test system: islet allografts in pancreatectomized baboons; experiment: Baboon model of islet cell transplantation (ICT) for pancreatectomy-induced diabetes; type: in vivo, Baboon (Papio hamadryas)
Method: Identification of donor-recipient pairs. Peripheral blood mononuclear cells (PBMC) from 10 potential recipients (Baboons, Papio hamadryas, male and female, 1-2 years of age, approximately 4.0 kg) from the Mannheimer facility (Homestead, Fla.) were used as responders against PBMC from 11 male donors (over 2 years of age, purchased from the Southwest Foundation in Texas) in a one way mixed leukocyte culture (MLC). The baboon MLC was performed via standardized methods for human MLC. […] The donors were of a sufficient size that enough islets and bone marrow were obtained from 1 donor to allow for transplantation into 2 recipients. […] An attempt was made to choose two recipients with similar MLC reactivity to the designated donor, and donor-recipient pairs with varying degrees of alloreactivity were chosen.
Islet/bone marrow preparation and administration.
For studies on enhancing tolerance, vertebral body was harvested from the pancreas donor and processed to obtain donor bone marrow cells (DBMC) generally according to routine modifications of methods for processing of human vertebral bodies. For recipients of donor bone marrow, infusions were administered on days 5 and II post ICT. A total dose of 10^9 nucleated cells per kg recipient body weight was given.
Pancreatectomy and ICT. […] The number of IEQ was determined immediately prior to transplantation. Total pancreatectomy was performed according to established surgical techniques. After completion of the total pancreatectomy, a 20G angiocatheter was inserted into one of the mesenteric vessel tributaries of the portal vein, and ICT was accomplished by gravity infusion of the islet preparation over a 10 min period.
Immunosuppression and post-operative care. FK506 (tacrolimus) was chosen as the immunosuppressant, as this drug is currently utilized in human ICT. FK506 administration commenced at 5 days prior to ICT. A dosage of 0.1 mg/kg/day, i.m. was administered to recipient baboons. Drug levels were monitored daily and dosage was adjusted to maintain trough levels of approximately 15 ng/ml.
For the first post-operative day (study day 1, or POD 1), the baboons were given intravenous fluids. The animals were subsequently fed a diet containing 60 g of carbohydrate per day, with 45 g of monkey biscuits (supplemented with viokase) and 15 g of fruit.
Monitoring. Fasting and post-prandial blood glucose (FG and PPG, respectively) were monitored via heel stick and blood testing with a Glucometer Elite, and at least once weekly, a blood sample was drawn to obtain plasma for testing of FG levels with a Beckman glucose analyzer. In general a blood sample was also obtained to confirm unusually high readings. […] At approximately 3 months post-transplant, testing was decreased to every other week. The blood samples were used for phenotyping of peripheral blood to assess leukocyte subsets and determination of CBC and chemistries, 5c8 and anti-5c8 levels, insulin and C-peptide levels, and chimerism. Blood was drawn periodically for retesting of MLC reactivity to donor and 3rd party antigens.

[2] = test system: islet allografts in pancreatectomized diabetic rhesus monkeys; experiment: Rhesus monkey model of ICT for pancreatectomy-induced diabetes; type: in vivo; conditions: induction days -1, 0, 3, 10 + monthly maintenance, monotherapy
Method: Unless specified, all procedures were generally as described above for the baboon model studies.
Animal procedures. SPF rhesus monkeys, 2-7 years of age, are readily available from COVANCE (Alice, Tex.) or the Mannheimer Foundation, Inc. (Homestead, Fla.) or similar vendors. Upon admission, all monkeys are examined to determine their general health, physical condition, and psychological status. All surgical procedures are carried under aseptic conditions. Animals are fasted for 12-18 hours before surgery and will be pre-anesthetized with i.m. ketamine (10 mg/kg) and atropine (0.04 mg/kg). Once the animal is sedated, an endotracheal tube and an i.v. catheter are promptly installed. The endotracheal tube is used to protect the airway and provide easy access for emergency drugs. The animals are anesthetized with an isoflurane and oxygen combination. Normal saline solution for injection is infused through the catheter throughout the entire ICT procedure at a rate of 10 ml/kg/hour.
A midline incision is made to gain access to the abdominal organs. For both donor and recipient animals, a total pancreatectomy is performed with preservation of the duodenum. […]
Monitoring. […] Fasting blood glucose (FG) levels are determined by using a lancet to prick the heel, to obtain a small drop of blood for placement on a glucometer strip. […]

[3] = test system: islet allograft function (glucose metabolism) in baboons; experiment: Intravenous glucose tolerance testing (IVGTT) of baboon islet allograft recipients; type: in vivo, Baboon (Papio hamadryas)
Method: Intravenous Glucose Tolerance Testing (IVGTT). It has been previously shown that in vivo islet-cell function tests give an accurate reflection of changes in β cell mass. (McCulloch et al., Diabetes 40: 673-679, 1991). Intravenous glucose tolerance tests were carried out after a 16- to 18-h overnight fast, as previously described (Lehmann et al., J. Med. Primatol. 26: 312-321, 1997). In brief, blood samples were collected at −10, −5, and 0 min. Then 0.5 g glucose per kg of body weight in a 50% glucose solution was injected over 20 seconds into the saphenous vein. 1.5 ml samples were collected from the contralateral femoral artery at 1, 3, 5, 7, 10, 15, 20, 25, 30 min post injection. Thus, a total of 12 blood samples were withdrawn over a […] period. The samples were drawn into glass tubes containing 0.05 ml 15% fluid EDTA and 0.2 ml trasylol (500 K.I.U. aprotinin/ml blood), placed on ice, and centrifuged within 10 minn. Plasma was then frozen at −80° C. and assayed later for glucose, immunoreactive insulin, and glucagon.
Statistical analysis and calculations. Results are set forth as means ±SEM. The glucose disappearance constant (Kg) was calculated from the IVGTT as the slope of the decline of the loge (In) plasma glucose between 10 and 30 min. after the glucose injection, multiplied by 100. The acute insulin response to glucose (AIRG) was calculated as the incremental area under the insulin curve (AUC) between 1-10 min after the IV glucose injection. The incremental responses (AUCGlucose, AUCInsulin) were calculated by means of the trapezoidal rule with subtraction of the basal values from 1 to 30 minutes, Data were analyzed with Statistica for Windows software (Version 5.0, 1997. Statsoft Inc., Tulsa, Okla., USA).

## C=CC[C@@H]1/C=C(\C)C[C@H](C)C[C@H](OC)[C@H]2O[C@@](O)(C(=O)C(=O)N3CCCC[C@H]3C(=O)O[C@H](/C(C)=C/[C@@H]3CC[C@@H](O)[C@H](OC)C3)[C@H](C)[C@@H](O)CC1=O)[C@H](C)C[C@@H]2OC [FK506, tacrolimus, reference compound]
[1]; Baboon, FK506 alone
  day of islet allograft rejection: 10 day
[1]; Baboon, FK506 in combination with stem cell selected marrow
  day of islet allograft rejection: 10 day
[1]; Baboon, FK506 in combination with whole bone marrow
  day of islet allograft rejection: 8 day

## Anti-CD154: humanized MAb having the antigen-specific binding properties of MAb 5c8; CD154 (CD40L) blocking agent
[2]
  islet allograft function and rejection episodes: functional islet allografts are maintained without the occurrence of rejection episodes
[1]; 4 out of 5 baboons
  islet allograft survival versus control or FK506 treated animals: extended islet allograft survival
[1]; Baboon, Induction + Anti-Rejection regimen, animal received a reduced dose of 5c8
  Duration (in PODs) of Insulin Independence: 8 PODs
[1]; Baboon, induction 20 mg/kg days -1, 3, 10 + monthly maintenance from POD 28, bone marrow infusions PODs 5 and 11, listed as 5C8
  POD until which graft was maintained after treatment for rejection: 162 POD and 124 POD
[1]; Baboon, other animals in the study, range of survivals, listed as hu5c8
  graft survival of functioning islet allografts: > 125 days and > 220 days
[3]; baboon studies
  adverse effect on insulin secretion or overall insulin sensitivity: no adverse effect
[3]; baboons on maintenance therapy, follow-up 16 weeks
  FPIS (first phase insulin secretion) after islet transplantation: well preserved
[3]; baboons treated at the time of rejection, after 8 postoperative weeks
  Kg values (glucose disappearance constant) in repeated IVGTT: decline
[3]; baboons treated with maintenance doses
  Kg values (glucose disappearance constant) in repeated IVGTT: Stable values
